Data set [1] in a line: Duration of effect / period of action after administration in man. It is filed as in vivo. On the procedure:
(§1) The Cetrorelix embonate (2:1) lyophilysate (30 mg), obtained according to Example 1, is resuspended in 2 mL of water for injection purposes and can then be administered parenterally, preferable subcutaneously (s.c.) or intramuscularly (i.m.)
(§2) For the s.c. administration, the bioavailability of the Cetrorelix embonate (2:1) is about 30 to 50% (100%=intravenously administered Cetrolix acetate). […] The duration of the effect depends on the dose; for a dose of 30 to 150 mg, it is 2 to 8 weeks or longer. The inventive Cetrorelix embonate (2:1) lyophilysate has already been investigated in Clinical Phase I in man.
(§3) The period of action exceeded 700 hours. The plasma level was constant at about 2 ng/mL 150 hours after the administration. The bioavailability was abut 40%.

Data set [2] is described as follows: Cetrorelix plasma concentration and bioavailability after administration of the Cetrorelix embonate (2:1) lyophilysate in man (Clinical Phase I). The class given is in vivo. On the procedure:
as §1, §2, §3

Non-standard residues stand in square brackets, D forms with d. Residues, ends and D or L forms follow the SMILES beside them. dPhe(4-Cl) = N[C@H](Cc1ccc(Cl)cc1)C(=O)O; d2Nal = N[C@H](Cc1ccc2ccccc2c1)C(=O)O; dCit = NC(=O)NCCC[C@@H](N)C(=O)O; d3Pal = N[C@H](Cc1cccnc1)C(=O)O

On to `CC(=O)N[C@H](Cc1ccc2ccccc2c1)C(=O)N[C@H](Cc1ccc(Cl)cc1)C(=O)N[C@H](Cc1cccnc1)C(=O)N[C@@H](CO)C(=O)N[C@@H](Cc1ccc(O)cc1)C(=O)N[C@H](CCCNC(N)=O)C(=O)N[C@@H](CC(C)C)C(=O)N[C@@H](CCCNC(=N)N)C(=O)N1CCC[C@H]1C(=O)N[C@H](C)C(N)=O` [Cetrorelix embonate (2:1), Cetrorelix embonate] (Ac-[d2Nal][dPhe(4-Cl)][d3Pal]SY[dCit]LRP[dA]-NH2; N-terminus and C-terminus assumed), for which, in data set [1] (60 mg in man, FIG. 1), the period of action result is “exceeded 700 hours”. Further, the “duration of the effect” value in data set [1] (dose of 30 to 150 mg, depends on the dose, 'or longer') was in the range of 2 to 8 weeks. Moreover, in data set [2] (60 mg in man, FIG. 1), the “burst effect (ca. 100 ng/mL)” value was “could not be detected”. Besides, the bioavailability (as a rule, dose-corrected exposure relative to a reference, in per cent) in data set [2] (human, in vivo, subcutaneous, s.c. administration, 100% = intravenously administered Cetrolix acetate) was 30 to 50%; in data set [2] (human, plasma, 60 mg in man, FIG. 1), roughly 40%. This compound also had a level at 150 h in data set [2] (human, plasma, 60 mg in man, constant 150 hours after the administration, FIG. 1) of roughly 2 ng/mL. In addition, the burst effect result in data set [2] (in patients) is given as “slight or even absent”.

The values are drawn from patent US6780972B2, “Method for the synthesis of peptide salts, their use and the pharmaceutical preparations, containing peptide salts” (Zentaris GmbH, priority 2000, dated 2004).
